Test results: patent US11078202B2, “β-lactamase inhibitor and use thereof” (priority 2018, dated 2021)
Where a name gives a salt, the structure may show the parent alone.

Columns and labels:
Type in all cases: cell-based
[1] = tested on: Klebsiella pneumoniae XNWB 0003; test: MIC assay of test compounds combined with imipenem (4 μg/mL); conditions: imipenem 4 μg/mL fixed
Method in brief: (§1)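 MIC values are the lowest concentrations of test compound that inhibited visible growth, read per CLSI after 16-20 h at 35±2 °C in CAMHB microdilution plates with the companion antibiotic held constant. Bacteria came from TSA cultures adjusted to OD600 0.1-0.15 and diluted 300-fold.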

[2] = tested on: Klebsiella pneumoniae XNWB 0002; test: as above; conditions: imipenem 4 μg/mL fixed
Method in brief: as §1

[3] = tested on: Pseudomonas aeruginosa XNWB 0008; test: as above; conditions: imipenem 4 μg/mL fixed
Method in brief: as §1

[4] = tested on: Klebsiella pneumoniae XNWB 0004; test: as above; conditions: imipenem 4 μg/mL fixed
Method in brief: as §1

[5] = tested on: Acinetobacter baumannii XNWB 0007; test: as above; conditions: imipenem 4 μg/mL fixed
Method in brief: as §1

[6] = tested on: Klebsiella pneumoniae XNWB 0001; test: as above; conditions: imipenem 4 μg/mL fixed
Method in brief: as §1

[7] = tested on: Klebsiella pneumoniae XNWB 0005; test: as above; conditions: imipenem 4 μg/mL fixed
Method in brief: as §1

[8] = tested on: Klebsiella pneumoniae XNWB 0006; test: as above; conditions: imipenem 4 μg/mL fixed
Method in brief: as §1

[9] = tested on: Klebsiella pneumoniae XNWB 0003; test: MIC assay of test compounds combined with ceftazidime (8 μg/mL); conditions: ceftazidime 8 μg/mL fixed
Method in brief: as §1

[10] = tested on: Klebsiella pneumoniae XNWB 0002; test: as above; conditions: ceftazidime 8 μg/mL fixed
Method in brief: as §1

[11] = tested on: Pseudomonas aeruginosa XNWB 0008; test: as above; conditions: ceftazidime 8 μg/mL fixed
Method in brief: as §1

[12] = tested on: Klebsiella pneumoniae XNWB 0004; test: as above; conditions: ceftazidime 8 μg/mL fixed
Method in brief: as §1

[13] = tested on: Acinetobacter baumannii XNWB 0007; test: as above; conditions: ceftazidime 8 μg/mL fixed
Method in brief: as §1

[14] = tested on: Klebsiella pneumoniae XNWB 0001; test: as above; conditions: ceftazidime 8 μg/mL fixed
Method in brief: as §1

[15] = tested on: Klebsiella pneumoniae XNWB 0005; test: as above; conditions: ceftazidime 8 μg/mL fixed
Method in brief: as §1

[16] = tested on: Klebsiella pneumoniae XNWB 0006; test: as above; conditions: ceftazidime 8 μg/mL fixed
Method in brief: as §1

SMILES	The minimum concentration of test compounds combined with imipenem (4 μg/mL) for bacteriostasis [1]	The minimum concentration of test compounds combined with imipenem (4 μg/mL) for bacteriostasis [2]	The minimum concentration of test compounds combined with imipenem (4 μg/mL) for bacteriostasis [3]	The minimum concentration of test compounds combined with imipenem (4 μg/mL) for bacteriostasis [4]	The minimum concentration of test compounds combined with imipenem (4 μg/mL) for bacteriostasis [5]	The minimum concentration of test compounds combined with imipenem (4 μg/mL) for bacteriostasis [6]	The minimum concentration of test compounds combined with imipenem (4 μg/mL) for bacteriostasis [7]	The minimum concentration of test compounds combined with imipenem (4 μg/mL) for bacteriostasis [8]	The minimum concentration of test compounds combined with ceftazidime (8 μg/mL) for bacteriostasis [9]	The minimum concentration of test compounds combined with ceftazidime (8 μg/mL) for bacteriostasis [10]	The minimum concentration of test compounds combined with ceftazidime (8 μg/mL) for bacteriostasis [11]	The minimum concentration of test compounds combined with ceftazidime (8 μg/mL) for bacteriostasis [12]	The minimum concentration of test compounds combined with ceftazidime (8 μg/mL) for bacteriostasis [13]	The minimum concentration of test compounds combined with ceftazidime (8 μg/mL) for bacteriostasis [14]	The minimum concentration of test compounds combined with ceftazidime (8 μg/mL) for bacteriostasis [15]	The minimum concentration of test compounds combined with ceftazidime (8 μg/mL) for bacteriostasis [16]
O=C1N2C[C@H](N1OS(=O)(=O)O)C1(CC1)C[C@H]2c1cc(CNC2CNC2)on1 [Example 48, (1R,4S)-4-(5-((azetidin-3-ylamino)methyl)isoxazol-3-yl)-6-oxo-5,7-diazaspiro[bicycle [3.2.1]octane-2,1′-cyclopropan]-7-yl sulfate]	A (A: <8 μg/mL)	A (A: <8 μg/mL)	A (A: <8 μg/mL)	A (A: <8 μg/mL)	C (C: 16-128 μg/mL)	A (A: <8 μg/mL)	A (A: <8 μg/mL)	A (A: <8 μg/mL)	A (A: <8 μg/mL)	A (A: <8 μg/mL)	B (B: 8-16 μg/mL)	B (B: 8-16 μg/mL)	C (C: 16-128 μg/mL)	A (A: <8 μg/mL)	A (A: <8 μg/mL)	A (A: <8 μg/mL)
O=C1N2C[C@H](N1OS(=O)(=O)O)C1(CC1)C[C@H]2c1cc(CC2CNC2)on1 [Example 49, (1R,4S)-4-(5-(azetidin-3-ylmethyl)isoxazol-3-yl)-6-oxo-5,7-diazaspiro[bicycle[3.2.1]octane-2,1′-cyclopropan]-7-yl sulfate]	A (A: <8 μg/mL)	A (A: <8 μg/mL)	A (A: <8 μg/mL)	A (A: <8 μg/mL)	C (C: 16-128 μg/mL)	A (A: <8 μg/mL)	A (A: <8 μg/mL)	A (A: <8 μg/mL)	A (A: <8 μg/mL)	A (A: <8 μg/mL)	B (B: 8-16 μg/mL)	B (B: 8-16 μg/mL)	C (C: 16-128 μg/mL)	A (A: <8 μg/mL)	A (A: <8 μg/mL)	A (A: <8 μg/mL)
